Assays:
influenza virus = assay: microbe, parasite or virus in culture; format: cell-based, influenza virus (MDBK or MDCK cells); settings: unidentified influenza virus, 72 h, read-out: CPE EC50, effective concentration to achieve 50% CPE inhibition, 3 days incubation, WST-8
[1] = target: cap-dependent endonuclease (RNP fraction containing PB1•PB2•PA complex) (Influenza A virus, UniProt P15659); assay: biochemical; settings: RNP from A/WSN/33 virus, capped Cy3/BHQ2 30mer RNA substrate, 60 minutes at room temperature; read-out: CEN IC50

Row | Compound | EC50 (influenza virus) | IC50 [1]
1 | COCCN1CN(C2c3ccccc3CSc3c(Cl)cccc32)n2ccc(=O)c(O)c2C1=O (stereo not drawn) [Example 335] | 16 nM | 19 nM
2 | O=C1c2c(O)c(=O)ccn2N(Cc2csc3ccc(Cl)cc23)CN1Cc1ccc(F)cc1 [Example 191] | 2820 nM | 238 nM
3 | CN1CC(C2c3ccccc3CCc3ccccc32)n2ccc(=O)c(O)c2C1=O (stereo not drawn) [Example 564] | 136 nM | 88 nM
4 | CC(C#N)N1CC(C2c3ccccc3CCc3ccccc32)n2ccc(=O)c(O)c2C1=O (stereo not drawn) [Example 575] | 87 nM | 58 nM
5 | CN1C(C(c2ccccc2)c2ccccc2)n2ccc(=O)c(O)c2C(=O)N1CCOc1ccc(F)cc1 (stereo not drawn) [Example 497] | 511 nM | 215 nM
6 | Cc1ccc2c(c1)C(N1CN(C(C)C)C(=O)c3c(O)c(=O)ccn31)c1ccccc1CS2 (stereo not drawn) [Example 357] | 386 nM | 138 nM
7 | C[C@@H](N1CN([C@H]2c3ccccc3SCc3c(F)cccc32)n2ccc(=O)c(O)c2C1=O)C(F)(F)F [Example 445] | 4 nM | 13 nM
8 | CC(C)N1CC[C@@H](N2CN(C3c4ccccc4CCc4ccccc43)n3ccc(=O)c(O)c3C2=O)C1 [Example 252] | 454 nM | 107 nM
9 | CC(C)N1C(=O)c2c(O)c(=O)ccn2N(C2c3ccccc3CCc3ccccc32)C1CN (stereo not drawn) [Example 532] | 75 nM | 98 nM
10 | COCCN1CN(C2c3ccccc3CSc3ccccc32)n2ccc(=O)c(O)c2C1=O (stereo not drawn) [Example 299] | 15 nM | 50 nM
11 | O=C1c2c(O)c(=O)ccn2N(C2c3ccccc3CSc3ccccc32)CN1C1CC(F)(F)C1 (stereo not drawn) [Example 324] | 35 nM | 107 nM
12 | CC(CN1CCOCC1)N1CN(C2c3ccccc3CCc3ccccc32)n2ccc(=O)c(O)c2C1=O (stereo not drawn) [Example 482] | 31 nM | 103 nM
13 | CCN1C(=O)c2c(O)c(=O)ccn2C(C(c2ccccc2)c2ccccc2)N1CC (stereo not drawn) [Example 498] | 351 nM | 161 nM
14 | O=C1c2c(O)c(=O)ccn2N(C2c3ccccc3CCc3ccccc32)CN1CCCF [Example 257] | 55 nM | 41 nM
15 | CN1C[C@H](C2c3ccccc3CSc3ccccc32)n2cc(C(=O)O)c(=O)c(O)c2C1=O (stereo partly drawn) [Example 560] | 173 nM | 27 nM
16 | CCN1CN(C2c3ccccc3CSc3ccccc32)n2ccc(=O)c(O)c2C1=O (stereo not drawn) [Example 309] | 13 nM | 40 nM
17 | N#CCN1C[C@H](C(c2ccccc2)c2ccccc2)n2ccc(=O)c(O)c2C1=O [Example 574] | 442 nM | 165 nM
18 | C[C@H](N1CN(C2c3ccccc3CSc3ccccc32)n2ccc(=O)c(O)c2C1=O)C(C)(C)C (stereo partly drawn) [Example 314] | 26 nM | 149 nM
19 | CC(CN1CCCCC1)N1CN(C2c3ccccc3CCc3ccccc32)n2ccc(=O)c(O)c2C1=O (stereo not drawn) [Example 486] | 72 nM | 140 nM
20 | C[C@@H](N1CN([C@H]2c3ccccc3CSc3cc(Cl)ccc32)n2ccc(=O)c(O)c2C1=O)C(F)(F)F [Example 449] | 21 nM | 62 nM
21 | CC(C)N1CN(Cc2cccc3ccsc23)n2ccc(=O)c(O)c2C1=O [Example 204] | 2360 nM | 299 nM
22 | C[C@H](N1CN([C@H]2c3ccccc3CSc3c(Cl)cccc32)n2ccc(=O)c(O)c2C1=O)C(F)(F)F [Example 423] | 19 nM | 280 nM
23 | O=C1c2c(O)c(=O)ccn2N(C2c3ccccc3CSc3ccccc32)CN1[C@H](CO)c1ccccc1 (stereo partly drawn) [Example 376] | 92 nM | 63 nM

Row | Compound | EC50 (influenza virus) | IC50 [1]
24 | O=C1c2c(O)c(=O)ccn2N(C2c3ccccc3CSc3ccccc32)CN1Cc1ccccn1 (stereo not drawn) [Example 307] | 95 nM | 52 nM
25 | CC(C)N1CN(C2c3ccccc3CCc3cc(Cl)ccc32)n2ccc(=O)c(O)c2C1=O (stereo not drawn) [Example 283] | 21 nM | 28 nM
26 | O=C1c2c(O)c(=O)ccn2N(C2c3ccccc3COc3ccccc32)CN1C1CC1 (stereo not drawn) [Example 392] | 25 nM | 153 nM
27 | CC(C)N1CN(C2c3ccccc3CSc3cc(F)ccc32)n2ccc(=O)c(O)c2C1=O (stereo not drawn) [Example 352] | – | 67 nM
28 | COCCN1CN(C2c3ccccc3CSc3ccc(F)cc32)n2ccc(=O)c(O)c2C1=O (stereo not drawn) [Example 338] | 85 nM | 74 nM
29 | CCC(COC)N1CN(C2c3ccccc3CCc3ccccc32)n2ccc(=O)c(O)c2C1=O (stereo not drawn) [Example 260] | 65 nM | 91 nM
30 | O=C(NCCN1CN(C(c2ccccc2)c2ccccc2)n2ccc(=O)c(O)c2C1=O)c1ccccc1 [Example 150] | – | 193 nM
31 | COCCN1CN(C2c3ccccc3CSc3cc(F)ccc32)n2ccc(=O)c(O)c2C1=O (stereo not drawn) [Example 337] | 28 nM | 58 nM
32 | C[C@@H](N1CN(C2c3ccccc3COc3c(Cl)cccc32)n2ccc(=O)c(O)c2C1=O)C(F)(F)F (stereo partly drawn) [Example 411] | 14 nM | 46 nM
33 | CC(C)N1CN(C2c3ccccc3CCc3c(CO)cccc32)n2ccc(=O)c(O)c2C1=O (stereo not drawn) [Example 384] | 293 nM | 153 nM
34 | COCCN1CN(C2c3ccccc3COc3c(F)cccc32)n2ccc(=O)c(O)c2C1=O (stereo not drawn) [Example 400] | 79 nM | 67 nM
35 | C[C@H](N1CN([C@H]2c3ccc(Cl)cc3CSc3ccccc32)n2ccc(=O)c(O)c2C1=O)C(F)(F)F [Example 420] | 21 nM | 58 nM
36 | CC(N1CN(C2c3ccccc3CSc3c(Cl)cccc32)n2ccc(=O)c(O)c2C1=O)C(F)(F)F (stereo not drawn) [Example 343] | 18 nM | 122 nM
37 | O=C1c2c(O)c(=O)ccn2N(C2c3ccccc3CCc3ccccc32)C(CO)N1CCO (stereo not drawn) [Example 554] | 465 nM | 65 nM
38 | CN1CN(C2c3ccccc3CSc3cc(Cl)ccc32)n2ccc(=O)c(O)c2C1=O (stereo not drawn) [Example 348] | – | 54 nM
39 | CN1CCCC(N2CN(C3c4ccccc4CSc4ccccc43)n3ccc(=O)c(O)c3C2=O)C1 (stereo not drawn) [Example 293] | 437 nM | 290 nM
40 | O=C(O)c1cn2c(c(O)c1=O)C(=O)N(CC(F)(F)F)C[C@@H]2C(c1ccccc1)c1ccccc1 [Example 185] | 1920 nM | 132 nM
41 | COCCN1CN(C(c2ccccc2)c2ccccc2)n2cc(C(=O)O)c(=O)c(O)c2C1=O [Example 94] | – | 96 nM
42 | COCC(COC)N1CN(C2c3ccccc3CSc3c(F)cccc32)n2ccc(=O)c(O)c2C1=O (stereo not drawn) [Example 339] | – | 183 nM
43 | CN(CCN1CN(C(c2ccccc2)c2ccccc2)n2ccc(=O)c(O)c2C1=O)S(=O)(=O)c1ccccc1 [Example 138] | – | 166 nM
44 | C[C@@H](N1CN([C@@H]2c3ccccc3SCc3c(Br)cccc32)n2ccc(=O)c(O)c2C1=O)C(F)(F)F [Example 463] | – | 12 nM
45 | CC(C)C1N(CCO)C(=O)c2c(O)c(=O)ccn2N1C1c2ccccc2CCc2ccccc21 (stereo not drawn) [Example 553] | – | 28 nM
46 | O=C1c2c(O)c(=O)ccn2N(C2c3ccccc3CSc3ccccc32)CN1C1CCC(F)(F)CC1 (stereo not drawn) [Example 313] | – | 189 nM

Row | Compound | EC50 (influenza virus) | IC50 [1]
47 | COCCN1C[C@H](C(c2ccccc2)c2ccccc2)n2cc(CO)c(=O)c(O)c2C1=O [Example 48] | – | 87 nM
48 | COCCN1CN(Cc2ccccc2-c2ccccc2)n2ccc(=O)c(O)c2C1=O [Example 99] | – | 341 nM
49 | COCCN1CN(C2c3ccccc3COc3c(Cl)cccc32)n2ccc(=O)c(O)c2C1=O (stereo not drawn) [Example 396] | – | 56 nM
50 | COCCN1CN(C2c3ccccc3CSc3c(F)cccc32)n2ccc(=O)c(O)c2C1=O (stereo not drawn) [Example 336] | – | 51 nM
51 | C[C@@H](N1CN([C@H]2c3ccc(F)cc3CSc3c(F)cccc32)n2ccc(=O)c(O)c2C1=O)C(F)(F)F [Example 470] | – | 8 nM
52 | C[C@@H](N1CN([C@H]2c3ccc(F)cc3CSc3ccccc32)n2ccc(=O)c(O)c2C1=O)C(F)(F)F [Example 454] | – | 12 nM
53 | CC(=O)N(C)CC1N(C(C)C)C(=O)c2c(O)c(=O)ccn2N1C1c2ccccc2CCc2ccccc21 (stereo not drawn) [Example 525] | – | 141 nM
54 | COCCN1C[C@H](C(c2ccccc2)c2ccccc2)n2cc(N)c(=O)c(O)c2C1=O [Example 56] | – | 358 nM
55 | COCC(COC)N1CN(C2c3ccccc3CCc3ccccc32)n2ccc(=O)c(O)c2C1=O [Example 272] | – | 82 nM
56 | C[C@@H](N1CN([C@@H]2c3ccccc3SCc3c(Cl)cccc32)n2ccc(=O)c(O)c2C1=O)C(F)(F)F [Example 417] | – | 30 nM
57 | CN1CCC(CN2CN(C3c4ccccc4CSc4ccccc43)n3ccc(=O)c(O)c3C2=O)CC1 (stereo not drawn) [Example 292] | 2230 nM | –
58 | O=C1c2c(O)c(=O)ccn2N(C2c3ccccc3CCc3ccccc32)CN1CC(F)(F)F [Example 263] | 75 nM | –
59 | CC(=O)OCCN1CN(C2c3ccccc3CCc3ccccc32)n2ccc(=O)c(O)c2C1=O [Example 276] | 89 nM | –
60 | C[C@@H](N1CN([C@H]2c3cccc(F)c3CSc3c(F)cccc32)n2ccc(=O)c(O)c2C1=O)C(F)(F)F [Example 469] | – | 16 nM
61 | CC(C)(C)[C@H](CO)N1CN(C2c3ccccc3CSc3ccccc32)n2ccc(=O)c(O)c2C1=O (stereo partly drawn) [Example 381] | 34 nM | –
62 | COCCN1C[C@H](C(c2ccccc2)c2ccccc2)n2cc(OC)c(=O)c(O)c2C1=O [Example 62] | – | 110 nM
63 | CC(C)N1CN(C2c3ccc(F)cc3CCc3cc(F)ccc32)n2ccc(=O)c(O)c2C1=O [Example 284] | 19 nM | –
64 | CCCC(C)N1C[C@H](C(c2ccccc2)c2ccccc2)n2cc(C(=O)O)c(=O)c(O)c2C1=O (stereo partly drawn) [Example 187] | 282 nM | –
65 | CC(N1CN(C2c3ccccc3COc3c(F)cccc32)n2ccc(=O)c(O)c2C1=O)C(F)(F)F (stereo not drawn) [Example 406] | 22 nM | –
66 | O=C1c2c(O)c(=O)ccn2N(C2c3ccccc3CSc3c(Cl)cccc32)CN1CCO (stereo not drawn) [Example 382] | 94 nM | –
67 | COCCN1CN(C2c3cc(F)ccc3COc3cc(F)ccc32)n2ccc(=O)c(O)c2C1=O (stereo not drawn) [Example 402] | 81 nM | –
68 | Cc1cccc2c1SCc1ccccc1C2N1CN(C(C)C)C(=O)c2c(O)c(=O)ccn21 (stereo not drawn) [Example 356] | – | 66 nM
